In brackets after ≈: the same amount, converted by molar mass. Numbered stars: 1 amine (or outer) side, 2 acyl side, 3 side chain; on linkers, the order of the positions; unused ones are H or OH. Bridge positions count the residues as written; N and C are the ends. Square brackets hold non-standard residues; d marks the D form. Peptide text beside a SMILES is read from it. * marks the point of attachment. hTyr(3S-OH,4S-OH,3'-OSO3H) = N[C@H](C(=O)O)[C@H](O)[C@@H](O)c1ccc(O)c(OS(=O)(=O)O)c1; pTerphenylCO(4''-OnC5H11) = CCCCCOc1ccc(-c2ccc(-c3ccc(C(=O)*)cc3)cc2)cc1; Orn(4R-OH,5R-OH) = O=C([C@H](C[C@@H](O)[C@@H](O)N[*:3])N[*:1])[*:2]; hTyr(3S-OH,4S-OH) = N[C@H](C(=O)O)[C@H](O)[C@@H](O)c1ccc(O)cc1; Pro(3S-OH,4S-Me) = C[C@H]1CN[C@H](C(=O)O)[C@H]1O; X1 = CCCCCOc1ccc(-c2cc(-c3ccc(C(=O)*)cc3)no2)cc1; Gln(3R-OH) = NC(=O)C[C@@H](O)[C@H](N)C(=O)O; Hyp = O=C(O)[C@@H]1C[C@@H](O)CN1
Tests used:
Type in all cases: functional
Nakaseomyces glabratus [1] = assay: Antimicrobial activity against Candida glabrata isolate 7754 after 24 hrs by broth dilution method in presence of 50% of human serum; conditions: isolate 7754, 24 h
Nakaseomyces glabratus [2] = assay: Antimicrobial activity against Candida glabrata isolate 7755 expressing FKS2 F659V mutant gene after 24 hrs by broth dilution method in presence of 50% of human serum; conditions: isolate 7755, 24 h
Nakaseomyces glabratus [3] = assay: Antimicrobial activity against Candida glabrata isolate 7754 after 48 hrs by broth dilution method; conditions: isolate 7754, 48 h
Nakaseomyces glabratus [4] = assay: Antimicrobial activity against Candida glabrata isolate 7755 FKS2 F659V mutant gene after 48 hrs by broth dilution method; conditions: isolate 7755, 48 h
Nakaseomyces glabratus [5] = assay: Antimicrobial activity against Candida glabrata isolate 7755 FKS2 F659V mutant gene after 48 hrs by broth dilution method in presence of 50% of human serum; conditions: isolate 7755, 48 h
Nakaseomyces glabratus [6] = assay: Antimicrobial activity against Candida glabrata isolate 7754 after 48 hrs by broth dilution method in presence of 50% of human serum; conditions: isolate 7754, 48 h
Nakaseomyces glabratus [7] = assay: Antimicrobial activity against Candida glabrata isolate 7754 after 24 hrs by broth dilution method; conditions: isolate 7754, 24 h
Nakaseomyces glabratus [8] = assay: Antimicrobial activity against Candida glabrata isolate 7755 expressing FKS2 F659V mutant gene after 24 hrs by broth dilution method; conditions: isolate 7755, 24 h

Work on `CCCCCOc1ccc(-c2cc(-c3ccc(C(=O)N[C@H]4C[C@@H](O)[C@@H](O)NC(=O)[C@@H]5[C@@H](O)[C@@H](C)CN5C(=O)[C@H]([C@H](O)CC(N)=O)NC(=O)[C@H]([C@H](O)[C@@H](O)c5ccc(O)c(OS(=O)(=O)O)c5)NC(=O)[C@@H]5C[C@@H](O)CN5C(=O)[C@H]([C@@H](C)O)NC4=O)cc3)no2)cc1` [MICAFUNGIN] (X1-[Orn(4R-OH,5R-OH)]T[Hyp][hTyr(3S-OH,4S-OH,3'-OSO3H)][Gln(3R-OH)][Pro(3S-OH,4S-Me)]; lactam 1-C) yielded an MIC (Nakaseomyces glabratus [1]) of 1 µg/mL, an MIC (Nakaseomyces glabratus [2]) of 4 µg/mL and an MIC (Nakaseomyces glabratus [3]) of 0.125 µg/mL (≈ 0.0984 µM). The MIC (Nakaseomyces glabratus [4]) was 0.5 µg/mL (≈ 0.394 µM), the MIC (Nakaseomyces glabratus [5]) was 4 µg/mL and the MIC (Nakaseomyces glabratus [6]) was 4 µg/mL. For the same compound, the MIC (Nakaseomyces glabratus [7]) was 0.125 µg/mL (≈ 0.0984 µM) and the MIC (Nakaseomyces glabratus [8]) was 0.25 µg/mL (≈ 0.197 µM).

`CC[C@H](C)C[C@H](C)CCCCCCCCC(=O)N[C@H]1C[C@@H](O)[C@@H](NCCN)NC(=O)[C@@H]2[C@@H](O)CCN2C(=O)[C@H]([C@H](O)CCN)NC(=O)[C@H]([C@H](O)[C@@H](O)c2ccc(O)cc2)NC(=O)[C@@H]2C[C@@H](O)CN2C(=O)[C@H]([C@@H](C)O)NC1=O` [CASPOFUNGIN] showed an MIC (Nakaseomyces glabratus [1]) of 0.5 µg/mL, an MIC (Nakaseomyces glabratus [2]) of 2 µg/mL and an MIC (Nakaseomyces glabratus [3]) of 0.25 µg/mL (≈ 0.229 µM). It also gave an MIC (Nakaseomyces glabratus [4]) of 8 µg/mL (≈ 7.32 µM), an MIC (Nakaseomyces glabratus [5]) of 8 µg/mL and an MIC (Nakaseomyces glabratus [6]) of 0.5 µg/mL. The MIC (Nakaseomyces glabratus [7]) was 0.25 µg/mL (≈ 0.229 µM) and the MIC (Nakaseomyces glabratus [8]) was 2 µg/mL (≈ 1.83 µM).

Work on `CCCCCOc1ccc(-c2ccc(-c3ccc(C(=O)N[C@H]4C[C@@H](O)[C@@H](O)NC(=O)[C@@H]5[C@@H](O)[C@@H](C)CN5C(=O)[C@H]([C@@H](C)O)NC(=O)[C@H]([C@H](O)[C@@H](O)c5ccc(O)cc5)NC(=O)[C@@H]5C[C@@H](O)CN5C(=O)[C@H]([C@@H](C)O)NC4=O)cc3)cc2)cc1` [ANIDULAFUNGIN] ({pTerphenylCO(4''-OnC5H11)}-[Orn(4R-OH,5R-OH)]T[Hyp][hTyr(3S-OH,4S-OH)]T[Pro(3S-OH,4S-Me)]; lactam 1-C) yielded an MIC (Nakaseomyces glabratus [1]) of 1 µg/mL, an MIC (Nakaseomyces glabratus [2]) of 4 µg/mL and an MIC (Nakaseomyces glabratus [3]) of 0.125 µg/mL (≈ 0.11 µM). For the same compound, the MIC (Nakaseomyces glabratus [4]) was 1 µg/mL (≈ 0.877 µM), the MIC (Nakaseomyces glabratus [5]) was 4 µg/mL and the MIC (Nakaseomyces glabratus [6]) was 2 µg/mL. For the same compound, the MIC (Nakaseomyces glabratus [7]) was 0.125 µg/mL (≈ 0.11 µM) and the MIC (Nakaseomyces glabratus [8]) was 0.5 µg/mL (≈ 0.438 µM).
